Data from patent publication US11919856B2, “Compounds” (UCL BUSINESS LTD, priority 2018, dated 2024).

How the values were obtained:
[1] = Panel of in vitro assays for off-targets predictive of safety liabilities
Excerpt: (§1) In order to investigate suitability of Compound 1 for progression into in vivo studies and the potential for taking forward as a clinical candidate for testing in human, Compound 1 was profiled against a panel of in vitro assays for off-targets considered predictive of potential safety liabilities. […] The measured potency of these marginal activities were at least 10-fold below the cellular activity of Compound 1 at blocking Z α1-antitrypsin polymerisation (pEC50 6.3). Loss of inhibitory activity represents a means by which possible off-target engagement with other serpins can be evaluated. However in contrast to α1-antitrypsin upon incubation with 50 μM Compound 1 the inhibitory activity of the homologues antithrombin, neuroserpin and antichymotrypsin was not affected.

ChromLogD = type: physicochemical
M α1-antitrypsin = target: T1, M α1-antitrypsin (Homo sapiens, UniProt P01009); test: Biochemical competition binding assay (TR-FRET), M α1-antitrypsin; settings: selectivity Z over M
T1 construct: Alpha1-antitrypsin was purified from the plasma of ZZ and MM α1-antitrypsin homozygotes; from tissue; host or cells: plasma of MM homozygotes
T1 sequence (P01009 25-418): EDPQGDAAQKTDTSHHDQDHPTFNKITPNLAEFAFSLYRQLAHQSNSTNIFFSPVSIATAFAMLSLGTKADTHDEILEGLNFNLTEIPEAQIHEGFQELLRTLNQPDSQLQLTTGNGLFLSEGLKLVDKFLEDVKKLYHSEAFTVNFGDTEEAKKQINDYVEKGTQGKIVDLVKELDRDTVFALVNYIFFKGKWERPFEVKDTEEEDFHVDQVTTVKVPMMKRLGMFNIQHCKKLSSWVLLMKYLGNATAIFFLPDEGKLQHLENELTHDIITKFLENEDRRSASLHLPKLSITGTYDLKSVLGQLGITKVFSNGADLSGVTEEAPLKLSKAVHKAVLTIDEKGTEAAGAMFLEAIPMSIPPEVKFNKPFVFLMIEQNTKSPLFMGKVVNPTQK
Description: (§2) Alpha1-antitrypsin was purified from the plasma of ZZ and MM α1-antitrypsin homozygotes as described in Lomas et al., Biochemistry. 1993; 32:500-8. Recombinant Cys232Ser α1-antitrypsin was expressed and purified as detailed in Irving et al. Methods Enzymol. 2011; 501:421-66 and Haq et al. Biosci Rep. 2013; 33(3):e00046.
(§3) A fluorescent derivative of compound 1 was prepared by derivatizing compound 1 at its ring nitrogen atom with an Alexa Fluor 488 label via a short organic linker group.
(§4) A serial dilution of test compounds in DMSO was diluted 25-fold with assay buffer, and 2.5 μl of this intermediate dilution transferred to a black, low-volume 384-well microtitre plate (Greiner BioOne; product no. 784076). […]
(§5) Plates were sealed and incubated overnight at room temperature, or for 3 days at 4° C. then 6 hours at room temperature. […] The TR-FRET signal was read on an Envision plate reader, by excitation of Terbium at 337 nm and detection of emission at 520 nm and 495 nm.
(§6) Dissociation constants (KD) for the affinity of compounds to Z-a1AT or M-a1AT protein were derived from the pIC50 values according to the Cheng-Prusoff equation, taking into account the concentration of fluorescent ligand used in relation to its affinity as determined in independent Fluorescence Polarisation and TR-FRET experiments: KD(compound)=10^−pIC50(compound)/([…]. Compound Association Experiments

[2] = In vitro clearance in cryopreserved hepatocytes, human; type: in vitro ADME
neuroserpin = target: T2, neuroserpin (Homo sapiens, UniProt Q99574); test: Serpin inhibitory activity, neuroserpin; type: biochemical; settings: incubation with 50 μM
T2 sequence (Q99574 17-410): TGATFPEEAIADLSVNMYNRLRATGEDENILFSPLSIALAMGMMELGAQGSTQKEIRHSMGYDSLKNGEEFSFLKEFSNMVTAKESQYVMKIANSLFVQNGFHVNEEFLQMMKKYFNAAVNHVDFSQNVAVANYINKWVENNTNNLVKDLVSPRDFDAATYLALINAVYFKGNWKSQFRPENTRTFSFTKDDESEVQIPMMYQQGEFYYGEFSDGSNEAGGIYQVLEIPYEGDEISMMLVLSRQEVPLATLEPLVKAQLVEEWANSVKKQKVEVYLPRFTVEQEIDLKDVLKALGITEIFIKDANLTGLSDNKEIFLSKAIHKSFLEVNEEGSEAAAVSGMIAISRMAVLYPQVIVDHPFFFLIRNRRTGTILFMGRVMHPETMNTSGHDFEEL
Excerpt: as §1

Z α1-antitrypsin [3] = target: T3, Z α1-antitrypsin (Homo sapiens, UniProt P01009, E366K/V237A); test: Biochemical competition binding assay (TR-FRET), Z α1-antitrypsin; design: a random insertion of the human Z α1-antitrypsin gene; from tissue; host or cells: liver and plasma of Z α1-antitrypsin transgenic mice (human Z transgene); settings: competition binding with fluorescently labelled derivative; read-out: affinity (KD) to Z α1-antitrypsin
T3 sequence (P01009 25-418 V237A/E366K): as the sequence (P01009 25-418) above, with V213A, E342K counted along it
Description: as §2, §3, §4, §5, §6

Z α1-antitrypsin [4] = target: T3, Z α1-antitrypsin; test: Polymerisation of Z α1-antitrypsin in iPSC-derived hepatocytes (ZZ genotype); type: cell-based; design: a random insertion of the human Z α1-antitrypsin gene; from tissue; host or cells: liver and plasma of Z α1-antitrypsin transgenic mice (human Z transgene); settings: read-out: pIC50, polymerisation of Z α1-antitrypsin (converted)
Description: In order to confirm that the potency and efficacy of Compound 1 in CHO-TET-ON-Z-A1AT was a reasonable estimate of what could be expected in hepatocytes with endogenous levels of expression, the effect of Compound 1 on the secretion and polymerisation of Z α1-antitrypsin was measured in iPSC-derived hepatocytes with the ZZ α1-antitrypsin genotype (Yusa et al. Nature. 2011; 478:391-4).

Z α1-antitrypsin [5] = target: T3, Z α1-antitrypsin; test: Stoichiometry of inhibition against chymotrypsin, Z α1-antitrypsin; type: biochemical; settings: Z α1-antitrypsin pre-incubated with compound
Description: Mutations that interfere with the opening of […] or that perturb its interaction with the N-terminal portion of the reactive centre loop alter the ability of serpins to inhibit target proteases. The stoichiometry of inhibition (SI) was determined for M and Z α1-antitrypsin in discontinuous experiments against a model target protease, chymotrypsin. The pre-incubation of both variants with Compound 1 led to a >98% loss of protease inhibitory activity. […] To investigate whether this activity was consistent with action as a chemical chaperone, M and Z α1-antitrypsin were unfolded in vitro into 6 M guanidine hydrochloride, and rapidly refolded by snap dilution into denaturant-free buffer in the presence or absence of Compound 1.

SMILES: CCC[C@@H](NC(=O)c1cccc2c1CC(=O)N2)[C@@H](O)c1cccc(F)c1C [Compound 1, N-[(1S,2R)-1-(3-fluoro-2-methylphenyl)-1-hydroxypentan-2-yl]-2-oxo-2,3-dihydro-1H-indole-4-carboxamide]
- activity against off-target panel [1]: inactive against the majority of these targets
- marginal activities in off-target panel [1]: low level of activity close to the lower limit of sensitivity in 16 assays
- potency of marginal off-target activities below cellular activity ([1]; relative to cellular activity at blocking Z α1-antitrypsin polymerisation): at least 10 fold
- ChromLogD (pH7.4) (ChromLogD): 3.8
- fold lower affinity for plasma-purified wild-type M α1-antitrypsin (M α1-antitrypsin): at least 50 fold
- in vitro clearance in cryopreserved hepatocytes [2]: 0.3 ± 0.05 mL/min/g
- inhibitory activity of neuroserpin (neuroserpin): not affected
- Kd (Z α1-antitrypsin [3]): 1.5 nM
- IC50 (Z α1-antitrypsin [4]): 398 nM
- loss of protease inhibitory activity (Z α1-antitrypsin [5]): > 98%
